Results reported in paper PMC8219695 (Nature Communications, 2021).
Values joined by “and” are separate entries in the source; they are usually repeats but may differ in a detail not shown here. Identical values can stand only once.

What was measured:
hMOR = biological target: T1, hMOR (Homo sapiens, UniProt P35372); experiment: cell-based; conditions: read-out: Emax hMOR
T1 construct: expressed in transfected cells; plasmid a gift from Dr. Nevin Lambert

mMOR = biological target: T2, mMOR (Mus musculus, UniProt P42866); experiment: BRET-based Nb33 recruitment assay at mMOR; format: cell-based; conditions: for Nb33 BRET assay at mMOR, response: single replicates, source data Fig 7a, listed as 7-OH Mitragynine
T2 construct: signal peptide (heterologous, not specified) (N); expressed in transfected cells; pcDNA3.1(+) construct made in house
T2 sequence (P42866 whole entry): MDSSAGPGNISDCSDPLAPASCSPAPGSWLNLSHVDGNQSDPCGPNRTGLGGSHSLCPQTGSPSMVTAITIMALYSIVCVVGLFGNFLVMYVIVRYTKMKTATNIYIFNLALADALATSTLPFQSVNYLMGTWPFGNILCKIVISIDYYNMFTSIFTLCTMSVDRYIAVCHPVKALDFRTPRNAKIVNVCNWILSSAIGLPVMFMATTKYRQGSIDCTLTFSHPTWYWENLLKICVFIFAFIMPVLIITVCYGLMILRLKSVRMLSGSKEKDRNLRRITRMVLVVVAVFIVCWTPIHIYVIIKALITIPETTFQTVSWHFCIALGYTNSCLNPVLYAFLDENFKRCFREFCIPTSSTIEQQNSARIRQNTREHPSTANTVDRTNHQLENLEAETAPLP

mice = conditions: previously determined; cited from earlier work
C57BL/6 mice = experiment: Tail-flick dose-response in C57BL/6 mice; format: in vivo, mouse; conditions: s.c.; for mouse tail-flick assay (%MPE): 15 minute time point, individual animals
Procedure: CD1 mice (n = 10), at peak analgesic time point. […] Dose–response curves of 22 (s.c.), in the tail-flick assay was evaluated 15 min post drug administration in WT, C57 mice (n = 8) and MOR KO mice (n = 5). Each point represents mean ± SEM.
(§1) For analgesic dose–response experiments, male CD1 mice (20–32 g), 6–8 weeks were obtained from Charles River Laboratories and male C57BL/6 mice (22–30 g), 8–15 weeks were obtained from Jackson Lab (Bar Harbor, ME) and housed 5 mice per cage in a vivarium following an IACUC-approved protocol. For male C57BL/6 mice temperature was kept constant at 22 ± 2 °C, and relative humidity was maintained at 50 ± 5%. For male CD1 mice (20–32 g) the temperature was in the range of 20–26 °C and relative humidity maintained within the range of 30–70%. Mice were given access to food and tap water ad libitum. All mice used throughout the manuscript were opioid naïve. All mice were maintained on a 12 h light/dark cycle with Purina rodent chow and water available ad libitum and housed in groups of five until testing.
Tail-flick antinociception was determined using the radiant heat tail-flick technique using an Ugo Basile model 37360 instrument as previously described[95],[96]. The intensity was set to achieve a baseline between 2 and 3 s. Baseline latencies were determined before experimental treatments for all mice. Tail-flick antinociception was assessed as an increase in baseline latency, with a maximal 15 s latency to minimize damage to the tail. Data were analyzed as percent maximal effect, % MPE, and was calculated according to the formula: % MPE = [(observed latency – baseline latency)/(maximal latency – baseline latency)] × 100. Compounds were injected s.c. and antinociception was assessed at the peak effect. Mice were tested for analgesia with cumulative subcutaneous doses of the drug until the mouse can withstand the maximal latency. Once the mouse reached the maximal latency, the mouse was no longer given higher doses. […] In vivo experiments were evaluated using GraphPad Prism 8, San Diego, CA as described above.
96-well plate (no. 60050; Perkin Elmer; Waltham, MA, USA). At time zero, the luciferase substrate coelenterazine H (5 μM) was added to each well. Ligands were added after 5 min, then BRET signal was measured 10 min later. BRET measurements were performed using a PHERAstar FS plate reader (BMG Labtech, Cary, NC, USA). The BRET signal was calculated as the ratio of the light emitted by the mVenus […]
Dose–response curves were fit using a three-parameter logistic equation in GraphPad Prism 8 (Graphpad Software, La Jolla, CA, USA).
All experiments were repeated in at least three independent trials each with triplicate determinations.
as §1, with “dose-response” for “dose–response”, “g),6-8” for “g), 6–8”, “20-26” for “20–26”, “30-70%.” for “30–70%.”
For analgesic testing in knockout animals, wild-type, male C57BL/6 mice (22–33 g), 10-12 weeks were purchased from the Jackson Lab (Bar Harbor, ME). These mice were kept at a constant temperature of 22 ± 2 °C, and relative humidity was maintained at 40-50%. Exon-1/Exon-11 MOR-1 KO mice on a C57 background were bred in the Pintar laboratory at Rutgers University. All mice were maintained on a 12- […]

T1 sequence (P35372 whole entry): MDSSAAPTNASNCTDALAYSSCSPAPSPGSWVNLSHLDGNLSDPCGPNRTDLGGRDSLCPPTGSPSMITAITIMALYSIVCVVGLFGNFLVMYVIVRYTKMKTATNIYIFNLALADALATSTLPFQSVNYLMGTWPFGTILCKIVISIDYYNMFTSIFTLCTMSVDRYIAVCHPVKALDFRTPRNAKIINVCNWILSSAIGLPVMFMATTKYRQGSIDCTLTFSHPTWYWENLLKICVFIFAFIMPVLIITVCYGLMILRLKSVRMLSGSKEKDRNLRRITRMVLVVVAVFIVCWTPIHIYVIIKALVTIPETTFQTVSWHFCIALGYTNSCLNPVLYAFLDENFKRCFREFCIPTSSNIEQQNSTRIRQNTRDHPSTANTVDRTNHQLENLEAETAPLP

CC[C@@H]1CN2CC[C@@]3(O)C(=Nc4cccc(OC)c43)[C@@H]2C[C@@H]1/C(=C\OC)C(=O)OC [7OH, 7-Hydroxymitragynine, reference compound]
Emax (hMOR): ~22%
EC50 (mMOR): 15 nM
Nb33 BRET assay at mMOR, response (mMOR; Log[drug] (M) -5): 31.8558 and 13.6622 and 18.9084 and 19.9525 and 1.3915 and 5.568 and 5.853 and 2.0473 and 9.468
Nb33 BRET assay at mMOR, response (mMOR; Log[drug] (M) -6): 11.2448 and 12.7863 and 8.673 and 7.158 and -2.301 and 5.3956 and -5.256 and 15.8192 and 11.2218
Nb33 BRET assay at mMOR, response (mMOR; Log[drug] (M) -7): 34.9577 and 9.119 and 11.9292 and 16.603 and 7.256 and -0.02541 and 7.483 and 5.463 and 3.637
Nb33 BRET assay at mMOR, response (mMOR; Log[drug] (M) -8): 18.0513 and 18.0293 and 14.3718 and -0.3281 and -6.115 and -12.1072 and 6.0021 and 5.2851 and -7.797
Nb33 BRET assay at mMOR, response (mMOR; Log[drug] (M) -9): -7.335 and -6.503 and -1.285 and -14.3312 and -4.26 and -7.41 and 7.337 and -0.23 and -1.333
Nb33 BRET assay at mMOR, response (mMOR; Log[drug] (M) -10): -7.162 and 6.7364 and 17.2382 and -2.279 and -1.22 and 15.6435 and -10.3312 and 4.394 and -8.638
Nb33 BRET assay at mMOR, response (mMOR; Log[drug] (M) -11): 8.105 and -10.4588 and 2.354 and -4.559 and 5.739 and -1.18 and -4.753 and 4.633 and 0.1195
Emax mMOR (mMOR; Nb33 BRET, relative to DAMGO): ~ 20%
Emax (mMOR; read-out: Emax mMOR, Nb33 BRET, relative to DAMGO): ~14%
ED50 (95% CI) mouse tail-flick (mice): 0.57 (0.19–1.7) mg/kg
ED50 (C57BL/6 mice; Mus musculus, sc, 0.25 h, read-out: ED50 (95% CI) tail-flick, 15 min time point, C57BL/6 mice, n = 10): 0.25 mg/kg
mouse tail-flick assay (%MPE) (C57BL/6 mice; dose 0.1, listed as 7-OH mitragynine): 5.405 %MPE and 8.511 %MPE and 8.661 %MPE and 16.5289 %MPE and 34.8214 %MPE and 6.87 %MPE and 7.627 %MPE and -5.556 %MPE and 0.7299 %MPE and 3.6036 %MPE
mouse tail-flick assay (%MPE) (C57BL/6 mice; dose 0.3, listed as 7-OH mitragynine): 36.036 %MPE and 12.0567 %MPE and 36.2205 %MPE and 44.6281 %MPE and 52.6786 %MPE and 100 %MPE (3×) and 73.7288 %MPE and 72.2628 %MPE
mouse tail-flick assay (%MPE) (C57BL/6 mice; dose 1): 100 %MPE
analgesic efficacy (Emax) (C57BL/6 mice; 15 min time point, C57BL/6 mice, 7OH normalized to 100%): 100%
